Laboratory results taken from publication PMC6934184, “Selective DNA-PKcs inhibition extends the therapeutic index of localized radiotherapy and chemotherapy” (The Journal of Clinical Investigation, 2019).

Target: T1, EPHA4 (Homo sapiens, UniProt P54764)
T1 construct: purchased Thermo Fisher Scientific (Life Technologies) SelectScreen
Assay: SelectScreen Z'LYTE
Type: biochemical
In short: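 NU5455 was profiled across the SelectScreen Broad panel of kinase activity and binding assays. Z'LYTE reactions such as CSF1R ran at apparent Km ATP, while the Adapta CAMK1 assay used ATP listed as 10. Values are given as percent.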

T1 sequence (P54764 20-986): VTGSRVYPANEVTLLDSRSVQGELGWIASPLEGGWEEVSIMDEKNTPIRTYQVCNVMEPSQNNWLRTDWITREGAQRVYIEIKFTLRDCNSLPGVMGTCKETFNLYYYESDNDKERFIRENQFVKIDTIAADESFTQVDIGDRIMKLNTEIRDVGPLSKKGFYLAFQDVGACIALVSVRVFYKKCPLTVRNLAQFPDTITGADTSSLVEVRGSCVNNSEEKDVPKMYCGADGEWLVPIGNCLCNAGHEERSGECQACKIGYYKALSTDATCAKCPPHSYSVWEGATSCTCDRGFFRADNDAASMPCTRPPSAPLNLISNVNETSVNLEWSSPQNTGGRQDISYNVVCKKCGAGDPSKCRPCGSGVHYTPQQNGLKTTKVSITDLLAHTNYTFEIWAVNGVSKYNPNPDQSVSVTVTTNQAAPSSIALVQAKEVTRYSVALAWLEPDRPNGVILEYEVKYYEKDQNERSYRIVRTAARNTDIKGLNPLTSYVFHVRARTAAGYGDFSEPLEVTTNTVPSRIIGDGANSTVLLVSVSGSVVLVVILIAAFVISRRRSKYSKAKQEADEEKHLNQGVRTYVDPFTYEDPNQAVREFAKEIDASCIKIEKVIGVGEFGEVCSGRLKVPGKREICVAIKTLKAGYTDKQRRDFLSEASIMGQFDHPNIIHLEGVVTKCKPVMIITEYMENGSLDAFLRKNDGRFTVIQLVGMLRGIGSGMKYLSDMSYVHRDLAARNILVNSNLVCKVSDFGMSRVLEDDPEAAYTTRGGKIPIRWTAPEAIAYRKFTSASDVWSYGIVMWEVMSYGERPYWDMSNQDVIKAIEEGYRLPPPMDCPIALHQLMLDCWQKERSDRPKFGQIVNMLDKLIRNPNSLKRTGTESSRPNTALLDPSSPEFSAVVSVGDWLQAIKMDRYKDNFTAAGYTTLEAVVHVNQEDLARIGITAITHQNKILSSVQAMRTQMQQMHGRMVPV

CN(C(=O)CN1CCOCC1)c1ccc2sc3c(-c4cccc5c(=O)cc(N6CC7CCC(C6)O7)oc45)cccc3c2c1 [NU5455]
inhibition at 1 µM: 2.9%
